From the Kinase Knowledgebase extract (Sharma et al. 2016) come the findings set out here.

Holding throughout (experiment): Enzyme Assay
Assay [1] concerns the target PIK3CA (human) (UniProt P42336).
The target of assay [2] is PIK3CG (human) (UniProt P48736).
The target of assay [3] is PIK3CB (Human) (UniProt P42338).
Assay [4] has as its target PIK3CD (Human) (UniProt O00329).

PIK3CB (Human), sequence (P42338 whole entry, looked up): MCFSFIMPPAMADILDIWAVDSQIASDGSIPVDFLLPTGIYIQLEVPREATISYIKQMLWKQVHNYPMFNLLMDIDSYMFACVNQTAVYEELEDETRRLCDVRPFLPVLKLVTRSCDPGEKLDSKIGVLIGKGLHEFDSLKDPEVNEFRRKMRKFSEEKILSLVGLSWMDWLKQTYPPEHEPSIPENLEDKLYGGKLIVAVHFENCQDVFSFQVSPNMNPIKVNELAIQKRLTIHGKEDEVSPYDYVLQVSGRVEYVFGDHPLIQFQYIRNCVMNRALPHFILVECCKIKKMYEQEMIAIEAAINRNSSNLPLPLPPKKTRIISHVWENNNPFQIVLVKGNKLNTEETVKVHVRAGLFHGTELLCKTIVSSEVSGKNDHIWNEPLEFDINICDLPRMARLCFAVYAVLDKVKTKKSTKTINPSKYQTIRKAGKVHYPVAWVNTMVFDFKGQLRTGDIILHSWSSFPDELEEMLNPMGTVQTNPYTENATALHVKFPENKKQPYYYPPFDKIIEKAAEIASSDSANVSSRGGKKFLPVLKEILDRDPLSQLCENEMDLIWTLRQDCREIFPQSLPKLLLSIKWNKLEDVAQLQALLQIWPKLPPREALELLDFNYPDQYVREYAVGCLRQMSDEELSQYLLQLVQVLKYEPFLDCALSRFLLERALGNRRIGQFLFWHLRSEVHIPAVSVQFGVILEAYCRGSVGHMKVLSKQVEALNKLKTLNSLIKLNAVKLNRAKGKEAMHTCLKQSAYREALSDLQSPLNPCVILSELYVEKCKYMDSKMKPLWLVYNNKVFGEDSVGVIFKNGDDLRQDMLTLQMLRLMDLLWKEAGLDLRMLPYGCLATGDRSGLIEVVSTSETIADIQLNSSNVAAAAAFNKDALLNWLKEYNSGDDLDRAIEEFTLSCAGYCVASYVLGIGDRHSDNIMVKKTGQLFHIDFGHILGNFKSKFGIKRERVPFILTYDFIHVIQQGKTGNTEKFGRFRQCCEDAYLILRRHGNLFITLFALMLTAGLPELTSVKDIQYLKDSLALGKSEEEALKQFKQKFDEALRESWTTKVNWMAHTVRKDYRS
PIK3CG (human), sequence (P48736 whole entry, looked up): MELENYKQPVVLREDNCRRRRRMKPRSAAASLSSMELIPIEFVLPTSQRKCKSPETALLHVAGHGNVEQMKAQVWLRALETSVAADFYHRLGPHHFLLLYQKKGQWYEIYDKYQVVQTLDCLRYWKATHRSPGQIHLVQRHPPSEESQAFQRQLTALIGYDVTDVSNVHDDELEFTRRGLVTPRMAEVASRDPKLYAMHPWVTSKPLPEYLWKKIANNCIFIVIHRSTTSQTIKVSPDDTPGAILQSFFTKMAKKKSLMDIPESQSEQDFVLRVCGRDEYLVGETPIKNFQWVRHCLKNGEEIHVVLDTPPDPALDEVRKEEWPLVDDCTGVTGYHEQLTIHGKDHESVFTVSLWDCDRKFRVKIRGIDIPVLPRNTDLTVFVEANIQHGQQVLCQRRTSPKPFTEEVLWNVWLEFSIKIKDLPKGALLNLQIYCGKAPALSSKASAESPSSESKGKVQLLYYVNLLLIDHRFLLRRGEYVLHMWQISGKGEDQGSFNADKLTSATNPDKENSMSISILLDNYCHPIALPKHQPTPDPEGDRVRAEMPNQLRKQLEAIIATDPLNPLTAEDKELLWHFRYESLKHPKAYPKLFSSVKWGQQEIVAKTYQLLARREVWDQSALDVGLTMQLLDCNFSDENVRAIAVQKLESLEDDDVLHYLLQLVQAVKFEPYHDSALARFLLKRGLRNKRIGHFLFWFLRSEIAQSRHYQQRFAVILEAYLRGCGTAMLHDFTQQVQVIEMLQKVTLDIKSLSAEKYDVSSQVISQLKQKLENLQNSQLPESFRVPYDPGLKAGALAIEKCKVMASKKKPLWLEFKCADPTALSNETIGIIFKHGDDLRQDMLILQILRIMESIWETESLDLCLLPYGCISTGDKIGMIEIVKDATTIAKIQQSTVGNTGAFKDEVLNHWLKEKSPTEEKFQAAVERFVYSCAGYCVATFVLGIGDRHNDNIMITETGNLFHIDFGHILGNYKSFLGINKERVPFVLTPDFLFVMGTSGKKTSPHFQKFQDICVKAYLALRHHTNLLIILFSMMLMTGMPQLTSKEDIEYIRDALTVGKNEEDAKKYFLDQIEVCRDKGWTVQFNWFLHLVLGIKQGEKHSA
PIK3CD (Human), sequence (O00329 whole entry, looked up): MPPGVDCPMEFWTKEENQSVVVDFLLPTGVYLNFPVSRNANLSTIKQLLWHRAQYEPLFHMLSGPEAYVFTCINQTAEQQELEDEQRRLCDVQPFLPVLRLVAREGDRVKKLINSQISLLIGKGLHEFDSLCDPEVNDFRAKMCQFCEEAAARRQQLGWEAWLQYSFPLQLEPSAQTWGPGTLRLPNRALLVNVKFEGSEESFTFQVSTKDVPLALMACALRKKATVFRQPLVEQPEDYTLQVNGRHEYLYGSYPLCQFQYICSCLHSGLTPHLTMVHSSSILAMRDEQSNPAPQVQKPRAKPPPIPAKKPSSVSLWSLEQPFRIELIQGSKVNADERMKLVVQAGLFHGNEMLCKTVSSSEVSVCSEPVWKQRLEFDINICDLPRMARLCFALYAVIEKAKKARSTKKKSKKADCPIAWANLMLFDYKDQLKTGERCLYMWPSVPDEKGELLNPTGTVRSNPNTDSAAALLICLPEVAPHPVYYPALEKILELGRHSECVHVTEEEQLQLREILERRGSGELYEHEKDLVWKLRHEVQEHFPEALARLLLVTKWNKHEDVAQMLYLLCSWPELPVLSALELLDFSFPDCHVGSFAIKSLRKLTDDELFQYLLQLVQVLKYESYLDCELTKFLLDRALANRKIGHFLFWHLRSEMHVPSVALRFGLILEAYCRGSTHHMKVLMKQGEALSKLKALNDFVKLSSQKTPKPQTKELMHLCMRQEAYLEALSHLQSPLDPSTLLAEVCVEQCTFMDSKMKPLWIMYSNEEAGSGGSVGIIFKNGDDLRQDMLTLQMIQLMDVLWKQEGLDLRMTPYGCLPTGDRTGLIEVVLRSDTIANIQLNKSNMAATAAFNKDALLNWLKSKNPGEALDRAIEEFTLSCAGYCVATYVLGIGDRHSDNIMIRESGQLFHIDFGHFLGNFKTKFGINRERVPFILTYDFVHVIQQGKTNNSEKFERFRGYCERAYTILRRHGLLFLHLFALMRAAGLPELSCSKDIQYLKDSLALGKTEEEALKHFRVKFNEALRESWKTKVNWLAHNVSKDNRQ
PIK3CA (human), sequence (P42336 whole entry, looked up): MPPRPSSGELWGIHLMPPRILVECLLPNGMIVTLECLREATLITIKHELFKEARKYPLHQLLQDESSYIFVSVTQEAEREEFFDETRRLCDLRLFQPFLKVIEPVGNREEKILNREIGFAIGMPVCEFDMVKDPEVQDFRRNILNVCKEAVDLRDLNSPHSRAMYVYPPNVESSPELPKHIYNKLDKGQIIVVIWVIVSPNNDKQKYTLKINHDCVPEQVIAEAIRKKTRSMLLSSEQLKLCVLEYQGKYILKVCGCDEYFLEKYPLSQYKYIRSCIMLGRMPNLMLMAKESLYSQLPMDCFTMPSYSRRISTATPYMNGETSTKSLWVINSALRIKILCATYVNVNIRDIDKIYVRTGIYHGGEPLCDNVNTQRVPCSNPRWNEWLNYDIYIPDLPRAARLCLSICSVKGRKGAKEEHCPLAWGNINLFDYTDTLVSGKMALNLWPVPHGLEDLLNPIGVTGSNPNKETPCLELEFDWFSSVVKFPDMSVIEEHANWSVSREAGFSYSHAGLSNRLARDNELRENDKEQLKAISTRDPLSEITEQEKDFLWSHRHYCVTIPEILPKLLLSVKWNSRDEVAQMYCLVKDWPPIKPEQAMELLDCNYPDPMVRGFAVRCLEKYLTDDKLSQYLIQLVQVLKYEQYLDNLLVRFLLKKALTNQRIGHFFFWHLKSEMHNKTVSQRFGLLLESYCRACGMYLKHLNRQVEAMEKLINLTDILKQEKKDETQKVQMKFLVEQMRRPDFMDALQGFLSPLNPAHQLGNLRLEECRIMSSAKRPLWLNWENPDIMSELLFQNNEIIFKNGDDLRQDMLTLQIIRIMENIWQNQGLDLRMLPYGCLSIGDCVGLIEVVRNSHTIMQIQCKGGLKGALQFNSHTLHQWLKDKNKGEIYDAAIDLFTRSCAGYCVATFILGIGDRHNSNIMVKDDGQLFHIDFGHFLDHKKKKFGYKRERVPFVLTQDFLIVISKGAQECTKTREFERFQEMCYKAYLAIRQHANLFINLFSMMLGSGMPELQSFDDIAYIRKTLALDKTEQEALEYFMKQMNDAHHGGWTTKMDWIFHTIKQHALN

Regarding `CC(C)N1CCN(Cc2nc(C(=O)Nc3cc(-c4cccc5[nH]ccc45)cc4[nH]ncc34)cs2)CC1`, the concentration for half-maximal inhibition (IC50) in assay [1] came out at 1.26 µM; in assay [2] it was 3.98 µM; in assay [3], 1.58 µM; in assay [4], 0.00316 µM.

For `Cc1cccc(C(=O)Nc2cc(-c3cccc4[nH]ccc34)cc3[nH]ncc23)n1`, the half-inhibitory concentration (IC50) came to 20 µM in assay [1], 0.794 µM in assay [2], 3.16 µM in assay [3] and 0.0158 µM in assay [4].

On to `Cc1nc(C(=O)Nc2cc(-c3cccc4c3ccn4C)cc3[nH]ncc23)cs1`, for which the IC50 in assay [1] is over 25.1 µM; in assay [2], over 25.1 µM; in assay [3] it was over 25.1 µM; in assay [4] it was 5.01 µM.

As to `Cc1nc(C(=O)Nc2cc(-c3cncc(NS(C)(=O)=O)c3)cc3[nH]ncc23)cs1`, the IC50 in assay [1] was 7.94 µM; in assay [2], 0.316 µM; in assay [3] it was over 25.1 µM; in assay [4], 0.0794 µM.

For `Cc1nc(C(=O)Nc2cc(-c3cccc(O)c3)cc3[nH]ncc23)cs1`, the IC50 in assay [1] stood at 15.8 µM; in assay [2], 12.6 µM; in assay [3], 7.94 µM; in assay [4], 0.316 µM.

For the compound `Cc1cc2c(-c3cc(NC(=O)c4csc(C)n4)c4cn[nH]c4c3)cccc2[nH]1`, the half-maximal inhibitory concentration (IC50) worked out at 7.94 µM in assay [1], 3.16 µM in assay [2], 3.16 µM in assay [3] and 0.02 µM in assay [4].

As to `Cn1ccc(C(=O)Nc2cc(-c3cccc4[nH]ccc34)cc3[nH]ncc23)n1`, the half-inhibitory concentration (IC50) in assay [1] was over 25.1 µM; in assay [2], 10 µM; in assay [3], 12.6 µM; in assay [4], 0.1 µM.

On to `C[C@@H]1CN(Cc2cnc(-c3cc(-c4cccc5[nH]ccc45)cc4[nH]ncc34)o2)C[C@H](C)O1`, for which the 50% inhibitory concentration (IC50) is 15.8 µM in assay [1], 2 µM in assay [2], 1 µM in assay [3] and 0.00251 µM in assay [4].

On to `C[C@@H]1CN(Cc2nc(C(=O)Nc3cc(-c4cccc5[nH]ccc45)cc4[nH]ncc34)cs2)C[C@H](C)O1`, for which the half-inhibitory concentration (IC50) in assay [1] was 12.6 µM; in assay [2], 2.51 µM; in assay [3], 5.01 µM; in assay [4] it was 0.002 µM.

Broadly, the IC50 is the midpoint of a concentration-inhibition curve. Read a low IC50 as higher potency.
